Data: US10806693B2, “Method for increasing lipolysis using a composition comprising bioactive Nelumbo nucifera (lotus) extract” (ISP Investments LLC, priority 2016, dated 2020)

Experiment: Lipolysis: glycerol release from differentiated 3T3-L1 adipocytes
Type: cell-based
Conditions: 2 mM, twice a day for 48 hours
Experimental: This study aims to evaluate in vitro effect of Nelumbo nucifera (Lotus) Extract on lipolysis by evaluating glycerol release on preadipocytes. Lipolysis is the hydrolysis of triglycerides into glycerol and fatty acids. The amount of glycerol release will be proportional to both the amount of stored triglyceride and the degree of lipolysis 3T3-L1 pre-adipocytes (ATCC) were cultured in DMEM 4.5 g/L glucose (Lonza) supplemented with 10% of FBS (Lonza), 2 mM of L-Glutamine (Lonza) and 100 μg/ml of Primocin (InvivoGen). 2 days after the cells' confluence, differentiation into adipocytes was induced by adding 0.5 mM IBMX, 1 μM dexamethasone and 10 μg/ml insulin (Sigma) in the culture medium for 3 days. Afterwards, IBMX and dexamethasone were removed and only the insulin was maintained for 3 to 4 days; then, the insulin was also removed, and the cells were maintained in culture medium for another 3 days. After differentiation, cells were treated with Nelumbo nucifera (Lotus) Extract of example 1 diluted at 1/10.000 eme in culture medium, further noted as Lotus 0.01% (volume/volume) or with 2 mM caffeine positive control, twice a day for 48 hours. Then glycerol release was measured using Adipolysis Assay Kit (Cayman Chemical), according to the manufacturer's instructions.

With Cn1c(=O)c2c(ncn2C)n(C)c1=O [Caffeine, caffeine] the “Glycerol release (% of untreated)” value was 131 % of untreated.
